The test system of series [1] is Human bone marrow cells (CFU-GM). Description: Human bone marrow toxicity, CFU-GM clonogenic assay. It is filed as cell-based. The note with it: Homo sapiens, CFU-GM, read-out: IC50 CFU-GM. From the text:
(§1) Human bone marrow cells were collected from normal healthy volunteers and the mononuclear population was separated by Ficoll-Hypaque gradient centrifugation as described previously by Sommadossi J-P, Carlisle R. “Toxicity of 3′-azido-3′-deoxythymidine and 9-(1,3-dihydroxy-2-propoxymethyl)guanine for normal human hematopoietic progenitor cells in vitro” Antimicrobial Agents and Chemotherapy 1987; 31:452-454; and Sommadossi J-P, Schinazi R F, Chu C K, Xie M-Y. “Comparison of cytotoxicity of the (−)- and (+)-enantiomer of 2′,3′-dideoxy-3′-thiacytidine in normal human bone marrow progenitor cells” Biochemical Pharmacology 1992; 44:1921-1925. The culture assays for CFU-GM and BFU-E were performed using a bilayer soft agar or methylcellulose method. Drugs were diluted in tissue culture medium and filtered. After 14 to 18 days at 37° C. in a humidified atmosphere of 5% CO2 in air, colonies of greater than 50 cells were counted using an inverted microscope. The results in Table 4 are presented as the percent inhibition of colony formation in the presence of drug compared to solvent control cultures.

The test system of series [2] is Human bone marrow cells (BFU-E). Description: Human bone marrow toxicity, BFU-E clonogenic assay. The note with it: Bone marrow cell; human bone marrow colony formation, 14 to 18 days. Format: cell-based.
Text: as §1

The nature of series [3]: Cytotoxicity assay (sulforhodamine B, CC50), Human Hepatoma. It is filed as cell-based. The note with it: human, Huh7 cells (human hepatoma); Table 13; Huh7 cells. As to the method:
Cells were seeded at a rate of between 5×10^3 and 5×10^4/well into 96-well plates in growth medium overnight at 37° C. in a humidified CO2 (5%) atmosphere. New growth medium containing serial dilutions of the drugs was then added. After incubation for 4 days, cultures were fixed in 50% TCA and stained with sulforhodamineB. The optical density was read at 550 nm. The cytotoxic concentration was expressed as the concentration required to reduce the cell number by 50% (CC50).

Series [4] deals with BVDV (strain NADL). Put plainly: Cell Protection Assay (CPA). The settings on record: Bovine viral diarrhea virus isolates and strains. It is filed as cell-based, Bovine Viral Diarrhea virus. Here is the method:
The assay was performed essentially as described by Baginski, S. G.; Pevear, D. C.; Seipel, M.; Sun, S. C. C.; Benetatos, C. A.; Chunduru, S. K.; Rice, C. M. and M. S. Collett “Mechanism of action of a pestivirus antiviral compound” PNAS USA 2000, 97(14), 7981-7986. MDBK cells (ATCC) were seeded onto 96-well culture plates (4,000 cells per well) 24 hours before use. After infection with BVDV (strain NADL, ATCC) at a multiplicity of infection (MOI) of 0.02 plaque forming units (PFU) per cell, serial dilutions of test compounds were added to both infected and uninfected cells in a final concentration of 0.5% DMSO in growth medium. Each dilution was tested in quadruplicate. Cell densities and virus inocula were adjusted to ensure continuous cell growth throughout the experiment and to achieve more than 90% virus-induced cell destruction in the untreated controls after four days post-infection. After four days, plates were fixed with 50% TCA and stained with sulforhodamine B. The optical density of the wells was read in a microplate reader at 550 nm. The 50% effective concentration (EC50) values were defined as the compound concentration that achieved 50% reduction of cytopathic effect of the virus. FIGS. 4 and 5 provide a graphical illustration of the methodology used to arrive at the 50% effective concentration (EC50) values for β-D-2′-CH3-riboG and ribavirin. FIG. 6 compares the results of the CPA for β-D-2′-CH3-riboG, β-D-2′-CH3-riboC, riboU, β-D-2′-CH3-riboA and ribavirin

For series [5], the system named is BVDV. Description: Plaque Reduction Assay. The note with it: Bovine viral diarrhea virus isolates and strains. It is filed as cell-based, Bovine Viral Diarrhea virus. Here is the method:
For each compound the effective concentration was determined in duplicate 24-well plates by plaque reduction assays. Cell monolayers were infected with 100 PFU/well of virus. Then, serial dilutions of test compounds in MEM supplemented with 2% inactivated serum and 0.75% of methyl cellulose were added to the monolayers. Cultures were further incubated at 37° C. for 3 days, then fixed with 50% ethanol and 0.8% Crystal Violet, washed and air-dried. FIG. 7 is a graphical illustration of the results from the Plaque Reduction Assay. FIG. 8 is an image of BVDV plaque formation in the presence of increasing concentrations of β-D-2′-CH3-riboU.
In general terms: Plaques are areas of infected cells; plaque reduction assays count them against a control.

In series [6] the test system is Bovine Viral Diarrhea virus (BVDV). Put plainly: microbe, parasite or virus in culture. It is filed as cell-based. The note with it: Bovine viral diarrhea virus isolates and strains, read-out: BVDV EC50.
The nature of series [7]: in vitro. The settings on record: cattle.
A short description of series [8]: in vitro.

Results on one molecule are retold here after patent publication US20180235993A1 (priority 2000, published 2018).

Broadly, the IC50 is the concentration that inhibits the measured activity by half. The term EC50 denotes the midpoint of the concentration-response curve. For orientation: EC90 means the concentration at which the effect reaches the 90% level.

Read-outs that look alike come from different tables or passages of the source.

With `CC1(O)[C@@H](O)[C@@H](CO)O[C@H]1n1cnc2c(=O)[nH]c(N)nc21` (stereo partly drawn) [β-D-2′-CH3-riboG], the IC50 in series [1] was more than 10 µM; in series [2], more than 100 µM. Moreover, the EC50 at 4 days in series [3] is more than 250 µM. For the same molecule, the EC50 in series [4] (96 h, MDBK cells infected with BVDV, 50% reduction of cytopathic effect, four days, read-out: EC50) stood at 4 µM; in series [4] (Table 13, BVDV, read-out: Cell Protection (EC50)), 4 µM; in series [6], 2 µM. The EC90 in series [5] (72 h, concentration to obtain 90% virus suppression, 3 days, read-out: EC90) was less than 9 µM; in series [5] (Table 13, BVDV, 90% virus suppression, read-out: Plaque Reduction (EC90)), less than 9 µM. Also, the CC50 in series [7] is 100 µM; in series [8] (cattle (Bos taurus)), more than 100 µM. For the same molecule, in series [8] (hamster), the CC50 at 4 days came out at 20 µM.
